Data published in article PMC8110993, “Structure and antimicrobial activity of NCR169, a nodule-specific cysteine-rich peptide of Medicago truncatula” (Scientific Reports, 2021).
Where two headings read alike, the source gives them in different places. Where a SMILES comes first, the peptide text is derived from it. Bridges are numbered along the chain shown (N, C = ends). Where no end group is shown, it is not given here.

Assays:
Escherichia coli K-12 = assay type: cell-based; conditions: for IC100: E. coli K-12, drop plate method, 2 h treatment at room temperature, 5 mM HEPES-KOH pH 7.0
Method: (§1) Antimicrobial tests were performed using the drop plate method[12],[47]. Bacterial strains in the logarithmic phase (OD600 = 0.5–0.8) were diluted with 5 mM HEPES–KOH (pH 7.0) to a bacterial culture value of 1 × 10^6 CFU/mL. At OD600 = 0.1, the concentrations of S. meliloti and E. coli K-12 cells were 6.4 × 10^6 CFU/mL and 5.2 × 10^7 CFU/mL, respectively. Equal volumes of bacteria (S. meliloti or E. coli K-12) and NCR169 peptide or PMB were mixed and incubated at room temperature for 2 h. For antimicrobial tests against S. meliloti, 10 μL of each serially diluted mixture was spotted on MHB plates with 2.5 mM MgCl2, and 2.5 mM CaCl2, followed by incubation at 30 °C for 40 h. For antimicrobial tests against E. coli K-12, 10 μL of each mixture was spotted on Mueller Hinton Broth (MHB; MilliporeSigma, Burlington, MA, USA) plates followed by incubation at 30 °C for 13 h.
(§2) To estimate survival rate, the peptide-treated bacterial mixtures were serially diluted with the buffer before spotting on the plate. Bacterial survival rates were calculated using the colony numbers of each bacterial strain with or without peptide treatment. All experiments were repeated at least four times.
(§3) Supplementary Table S2. Antimicrobial activities of NCR169 peptides against E. coliK-12 and S. meliloti.
(§4) Peptide IC50 (μM)* IC100 (μM)
(§5) E. coli K-12 S. meliloti E. coli K-12 S. meliloti
(§6) IC50: 50% inhibitory concentration (Calculated using “Dose-response curve” fitting)

Sinorhizobium meliloti = assay type: cell-based; conditions: for IC100: drop plate method, 2 h treatment at room temperature, 5 mM HEPES-KOH pH 7.0
Method: as §1, §2, §3, §4, §5, §6

[1] = Liposome sedimentation (binding) assay
Method: (§7) Figure 3 NCR169 binds to the bacterial phospholipid. (A) Circular dichroism (CD) spectra of NCR169 peptides (NCR169-ox1 and -ox2). NCR169 peptides (20 μM) were dissolved in the following solvents: water (No additives), 2 mM DMPC liposomes, 2 mM DMPG liposomes or 30% 2,2,2-trifluoroethanol (TFE). (B) The results of liposome binding assays. The NCR169 peptide (20 μM) was incubated with buffer (No lipid), 2 mM DMPC liposomes, or 2 mM DMPG liposomes. After incubation at room temperature for 30 min, the mixture was ultra-centrifuged at 200,000×g. The supernatant and pellet fractions were analyzed by Tricine-SDS-PAGE. The no lipid sample before ultra-centrifugation was used as the input.
(§8) The phospholipids DMPC and DMPG were purchased from Avanti Polar Lipids (Alabaster, AL, USA). An appropriate amount of phospholipid was dissolved in chloroform and dried under vacuum for 1 h. The lipid film was suspended in water, vortexed, and sonicated for 30 min to form the liposomes.
The assay was carried out as described previously. Briefly, equal volumes of NCR169 peptide (20 μM) and liposomes (2 mM) were mixed in assay buffer (20 mM HEPES, 150 mM NaCl, pH 7.0) and incubated for 30 min at room temperature, followed by ultracentrifugation at 200,000×g for 15 min at 20 °C. After centrifugation, the supernatant was collected, and the pellet was dissolved in the same volume of assay buffer containing 0.2% Triton X-100. The supernatant and pellet fractions were subjected to Tricine-SDS-PAGE, and peptides were detected by Coomassie Brilliant Blue staining.
Supplementary Figure S11. NCR 169 M binds to the bacterial phospholipid. (A) Circular dichroism (CD) spectra of NCR169M (20 μM) in water (No additive), 2 mM dimyristoylphosphatidylcholine (DMPC) liposomes, 2 mM dimyristoylphosphatidylglycerol (DMPG) liposomes or 30% 2,2,2-trifluoroethanol (TFE). (B) The result of liposome binding assay. NCR169M (20 μM) was incubated with buffer (No lipid),2 mM DMPC liposomes, or 2 mM DMPG liposomes . After incubation at room temperature for 30 min, the mixture was ultra-centrifuged at 200,000 × g. The supernatant and pellet fractions were analyzed by Tricine-SDS-PAGE. The no lipidsample before ultra-centrifugation was used as the input.
(also on this page, place not known: [θ] (103 deg cm2 dmol-1) markerkDa input No lipid sup ppt sup ppt sup ppt NCR169M lipid), DMPC 2 DMPG liposomes. lipid sample)
(1 picture or pasted object on this page, not shown here)
Supplementary Figure S12. The results of liposome binding assays. (A) NCR169-derived peptide (10 μM) was incubated with buffer (No lipid), 1 mM DMPC liposomes, 1 mM DMPG liposomes. After incubation at room temperature for 30 min, the mixture was ultra-centrifuged at 200,000 × g. The supernatant and pellet fractions were analyzed by Tricine-SDS-PAGE. The no lipid sample before ultra-centrifugation was used as the input. Arrows indicate weak bands. (B) […]

[2] = Liposome sedimentation (binding) assay; conditions: peptide 20 μM, 2 mM DMPC liposomes, 20 mM HEPES, 150 mM NaCl, pH 7.0, 30 min room temperature, 200,000×g, supernatant and pellet by Tricine-SDS-PAGE
Method: as §7, §8
The assay was carried out as described previously. Briefly, equal volumes of NCR169 peptide (20 μM) and liposomes (2 mM) were mixed in assay buffer (20 mM HEPES, 150 mM NaCl, pH 7.0) and incubated for 30 min at room temperature, followed by ultracentrifugation at 200,000×g for 15 min at 20 °C. […] The supernatant and pellet fractions were subjected to Tricine-SDS-PAGE, and peptides were detected by Coomassie Brilliant Blue staining.

[3] = assay type: physicochemical
Method: To confirm it, we examined the solubility of NCR169 in various solvents, HEPES (salt-free), HEPES with salt (50 to 200 mM NaCl or KCl), and PBS. […] In other words, the disulfide bonds of NCR169 contribute to its solubility.
Supplementary Figure S3. Solubility assessment of NCR169. The same amount of NCR169 was dissolved in various solvents. After incubation at room temperature for 1 h, the solution was centrifuged at 20,000 × g and the supernatant was analyzed by Tricine-SDS-PAGE. […]

[4] = assay type: physicochemical; conditions: pH 2.2
Method: We further measured the circular dichroism (CD) spectra of NCR169-ox1 and -ox2 under various pH conditions to confirm their structural stability against pH (Supplementary Fig. S4). […] Because acidic pH is preferable for amide proton detection in NMR experiments, we performed the following solution NMR study at lower pH.
CD spectra were recorded within a wavelength range of 270–195 nm using a JASCO J-820 spectropolarimeter (JASCO International Co., Ltd., Tokyo, Japan). A quartz cell with a light path length of 1 mm was used for the measurements. The sample temperature was maintained at 25 °C during the measurements.
Supplementary Figure S4. Circular dichroism (CD) spectra of NCR169-ox1 and -ox2 under
various pH conditions. The signal reflectingβ-sheet structure (218 nm) was hardly changed.

[5] = NCR169-derived peptide 10 μM, 1 mM DMPG liposomes, 30 min room temperature, 200,000×g, Tricine-SDS-PAGE
[6] = peptide 20 μM, 2 mM DMPG liposomes, 20 mM HEPES, 150 mM NaCl, pH 7.0, 30 min room temperature, 200,000×g, supernatant and pellet by Tricine-SDS-PAGE

| Molecule | IC100 (Escherichia coli K-12) [µM] | IC50 (Escherichia coli K-12; K-12, 2 h, pH 7) [nM] | IC50 (Sinorhizobium meliloti; 2 h, pH 7) [nM] | IC100 (Sinorhizobium meliloti; S. meliloti) [µM] | Binding to DMPG liposomes [1, 5] | Binding to DMPG liposomes [1, 6] | Binding to DMPC liposomes [2] | Solubility in various solvents [3] | Structural stability against pH (CD spectra) [4] | Antimicrobial activity (in words) (Escherichia coli K-12; E. coli K-12, various peptide concentrations) | Antimicrobial activity (in words) (Sinorhizobium meliloti; S. meliloti, various peptide concentrations) | IC50 (Escherichia coli K-12; E. coli K-12, 1 × 10^6 CFU/mL in 5 mM HEPES-KOH pH 7.0, 2 h at room temperature, spotted on MHB plates, 30 °C 13 h, survival rate from colony numbers, dose-response curve fitting, repeated at least four times, read-out: IC50 (50% inhibitory concentration)) [nM] | IC50 (Sinorhizobium meliloti; S. meliloti, 1 × 10^6 CFU/mL in 5 mM HEPES-KOH pH 7.0, 2 h at room temperature, spotted on MHB plates with 2.5 mM MgCl2 and 2.5 mM CaCl2, 30 °C 40 h, dose-response curve fitting, repeated at least four times, read-out: IC50 (50% inhibitory concentration)) [nM] |
| --- | --- | --- | --- | --- | --- | --- | --- | --- | --- | --- | --- | --- | --- |
| CC[C@H](C)[C@H](NC(=O)[C@H](CCCCN)NC(=O)[C@H](Cc1ccccc1)NC(=O)[C@H](CC(C)C)NC(=O)[C@@H]1CCCN1C(=O)[C@H](CCCCN)NC(=O)[C@H](CCCCN)NC(=O)[C@H](CO)NC(=O)[C@H](CCCCN)NC(=O)[C@H](Cc1ccc(O)cc1)NC(=O)CN)C(=O)N[C@@H](Cc1c[nH]c2ccccc12)C(=O)N[C@@H](CCCCN)C(=O)N[C@H]1CSSC[C@@H](C(=O)N[C@H](C(=O)N[C@@H](CC(C)C)C(=O)N[C@@H](Cc2c[nH]c3ccccc23)C(=O)N[C@@H](Cc2ccc(O)cc2)C(=O)N[C@@H](CCCCN)C(=O)O)C(C)C)NC(=O)[C@H](C(C)C)NC(=O)[C@H](CC(N)=O)NC(=O)[C@H](CCC(=O)O)NC(=O)[C@H](C(C)C)NC1=O [NCR169CL-ox] (H-GYKSKKPLFKIWKCVENVCVLWYK-OH; disulfide 14-19) | 0.5 | 140 | 570 | > 128 | bound to DMPG liposomes |  |  |  |  |  |  |  |  |
| CC[C@H](C)[C@@H]1NC(=O)CNC(=O)[C@@H](NC(=O)[C@H](Cc2ccc(O)cc2)NC(=O)[C@H](CCCCN)NC(=O)[C@@H](NC(=O)[C@H](Cc2c[nH]cn2)NC(=O)CNC(=O)[C@@H](NC(=O)[C@H](CC(=O)O)NC(=O)[C@H](CCC(=O)O)NC(=O)CN)[C@@H](C)CC)[C@@H](C)CC)CSSC[C@@H]2NC(=O)[C@H](CCCCN)NC(=O)[C@H](Cc3c[nH]c4ccccc34)NC(=O)[C@H]([C@@H](C)CC)NC(=O)[C@H](CCCCN)NC(=O)[C@H](Cc3ccccc3)NC(=O)[C@H](CC(C)C)NC(=O)[C@@H]3CCCN3C(=O)[C@H](CCCCN)NC(=O)[C@H](CCCCN)NC(=O)[C@H](CO)NC(=O)[C@H](CCCCN)NC(=O)[C@H](Cc3ccc(O)cc3)NC(=O)[C@H](CSSC[C@@H](C(=O)N[C@H](C(=O)N[C@@H](CC(C)C)C(=O)N[C@@H](Cc3c[nH]c4ccccc34)C(=O)N[C@@H](Cc3ccc(O)cc3)C(=O)N[C@@H](CCCCN)C(=O)O)C(C)C)NC(=O)[C@H](C(C)C)NC(=O)[C@H](CC(N)=O)NC(=O)[C@H](CCC(=O)O)NC(=O)[C@H](C(C)C)NC2=O)NC(=O)[C@H](CC(=O)O)NC(=O)[C@H](CC(=O)O)NC(=O)[C@H](C(C)C)NC1=O [NCR169-ox2] (H-GEDIGHIKYCGIVDDCYKSKKPLFKIWKCVENVCVLWYK-OH; disulfide 10-29, 16-34) | 16 | 3400 | 9800 | 128 |  | hardly binds | Neither NCR169-ox1 nor -ox2 bound | soluble in all conditions | retained their conformations under acidic and neutral conditions |  |  |  |  |
| YKSKKPLFKIWK [NCR169M] | 0.5 | 83 | 240 | 2 |  | bound to DMPG liposomes |  |  |  |  |  |  |  |
| CC[C@H](C)[C@@H]1NC(=O)CNC(=O)[C@@H](NC(=O)[C@H](Cc2ccc(O)cc2)NC(=O)[C@H](CCCCN)NC(=O)[C@@H](NC(=O)[C@H](Cc2c[nH]cn2)NC(=O)CNC(=O)[C@@H](NC(=O)[C@H](CC(=O)O)NC(=O)[C@H](CCC(=O)O)NC(=O)CN)[C@@H](C)CC)[C@@H](C)CC)CSSC[C@@H](C(=O)N[C@@H](Cc2ccc(O)cc2)C(=O)O)NC(=O)[C@H](CC(=O)O)NC(=O)[C@H](CC(=O)O)NC(=O)[C@H](C(C)C)NC1=O [NCR169N-ox] (H-GEDIGHIKYCGIVDDCY-OH; disulfide 10-16) | > 128 |  |  | > 128 | did not |  |  |  |  | no antimicrobial activity | no antimicrobial activity |  |  |
| Polymyxin B [PMB, reference compound] | 0.031 |  |  | 0.25 |  |  |  |  |  |  |  | 18 | 92 |
| CC[C@H](C)[C@H](NC(=O)[C@H](CCCCN)NC(=O)CN)C(=O)N[C@@H](Cc1c[nH]c2ccccc12)C(=O)N[C@@H](CCCCN)C(=O)N[C@H]1CSSC[C@@H](C(=O)N[C@H](C(=O)N[C@@H](CC(C)C)C(=O)N[C@@H](Cc2c[nH]c3ccccc23)C(=O)N[C@@H](Cc2ccc(O)cc2)C(=O)N[C@@H](CCCCN)C(=O)O)C(C)C)NC(=O)[C@H](C(C)C)NC(=O)[C@H](CC(N)=O)NC(=O)[C@H](CCC(=O)O)NC(=O)[C@H](C(C)C)NC1=O [NCR169CS-ox] (H-GKIWKCVENVCVLWYK-OH; disulfide 6-11) | 64 | 5600 | 45000 | > 128 | bound to DMPG liposomes |  |  |  |  |  |  |  |  |
